{"source": "paper PMC6115343", "about": "(The Korean Journal of Physiology & Pharmacology : …, 2018)", "target": "Transient receptor potential vanilloid 1 (TRPV1) (Mus musculus, UniProt Q704Y3)", "sequence (Q704Y3 whole entry)": "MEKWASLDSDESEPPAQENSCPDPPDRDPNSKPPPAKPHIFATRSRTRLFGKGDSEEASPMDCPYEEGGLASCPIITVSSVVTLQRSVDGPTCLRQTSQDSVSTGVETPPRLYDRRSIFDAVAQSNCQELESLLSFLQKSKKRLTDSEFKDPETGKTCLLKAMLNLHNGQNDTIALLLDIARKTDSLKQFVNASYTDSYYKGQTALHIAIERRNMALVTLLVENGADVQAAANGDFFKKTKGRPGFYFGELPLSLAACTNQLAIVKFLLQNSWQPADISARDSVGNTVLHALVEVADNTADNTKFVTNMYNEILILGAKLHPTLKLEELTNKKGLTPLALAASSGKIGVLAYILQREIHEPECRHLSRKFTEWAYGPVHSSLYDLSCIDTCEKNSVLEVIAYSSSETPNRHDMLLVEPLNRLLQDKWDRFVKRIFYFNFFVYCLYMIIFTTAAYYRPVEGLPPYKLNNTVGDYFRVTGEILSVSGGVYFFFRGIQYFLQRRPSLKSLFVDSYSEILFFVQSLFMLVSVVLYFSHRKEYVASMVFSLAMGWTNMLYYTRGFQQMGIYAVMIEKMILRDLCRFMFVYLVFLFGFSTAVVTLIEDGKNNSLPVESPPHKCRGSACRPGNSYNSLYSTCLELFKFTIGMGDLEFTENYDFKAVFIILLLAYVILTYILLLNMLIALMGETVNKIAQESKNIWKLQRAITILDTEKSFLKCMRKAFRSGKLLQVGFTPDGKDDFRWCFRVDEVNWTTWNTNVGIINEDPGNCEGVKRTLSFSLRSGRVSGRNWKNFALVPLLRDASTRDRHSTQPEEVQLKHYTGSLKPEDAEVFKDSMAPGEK", "test": "whole-cell patch clamp of native TRPV1 currents in cultured mouse DRG neurons", "format": "cell-based", "data": [{"smiles": "COc1cc(/C=C/C(=O)CC(=O)/C=C/c2ccc(O)c(OC)c2)ccc1O", "note": "[curcumin]", "values": [{"measurement": "IC50", "value": 523, "unit": "nM"}]}]}
